Consider 1 compound from PMC7756582, “Prodrugs of γ‐Alkyl‐Modified Nucleoside Triphosphates: Improved Inhibition of HIV Reverse Transcriptase” (Angewandte Chemie (International Ed. in English), 2020).

The target of this assay is T1, human DNA polymerase γ (Homo sapiens, UniProt P54098).
T1 construct: purchased Roboklon
T1 sequence (P54098 1-1239): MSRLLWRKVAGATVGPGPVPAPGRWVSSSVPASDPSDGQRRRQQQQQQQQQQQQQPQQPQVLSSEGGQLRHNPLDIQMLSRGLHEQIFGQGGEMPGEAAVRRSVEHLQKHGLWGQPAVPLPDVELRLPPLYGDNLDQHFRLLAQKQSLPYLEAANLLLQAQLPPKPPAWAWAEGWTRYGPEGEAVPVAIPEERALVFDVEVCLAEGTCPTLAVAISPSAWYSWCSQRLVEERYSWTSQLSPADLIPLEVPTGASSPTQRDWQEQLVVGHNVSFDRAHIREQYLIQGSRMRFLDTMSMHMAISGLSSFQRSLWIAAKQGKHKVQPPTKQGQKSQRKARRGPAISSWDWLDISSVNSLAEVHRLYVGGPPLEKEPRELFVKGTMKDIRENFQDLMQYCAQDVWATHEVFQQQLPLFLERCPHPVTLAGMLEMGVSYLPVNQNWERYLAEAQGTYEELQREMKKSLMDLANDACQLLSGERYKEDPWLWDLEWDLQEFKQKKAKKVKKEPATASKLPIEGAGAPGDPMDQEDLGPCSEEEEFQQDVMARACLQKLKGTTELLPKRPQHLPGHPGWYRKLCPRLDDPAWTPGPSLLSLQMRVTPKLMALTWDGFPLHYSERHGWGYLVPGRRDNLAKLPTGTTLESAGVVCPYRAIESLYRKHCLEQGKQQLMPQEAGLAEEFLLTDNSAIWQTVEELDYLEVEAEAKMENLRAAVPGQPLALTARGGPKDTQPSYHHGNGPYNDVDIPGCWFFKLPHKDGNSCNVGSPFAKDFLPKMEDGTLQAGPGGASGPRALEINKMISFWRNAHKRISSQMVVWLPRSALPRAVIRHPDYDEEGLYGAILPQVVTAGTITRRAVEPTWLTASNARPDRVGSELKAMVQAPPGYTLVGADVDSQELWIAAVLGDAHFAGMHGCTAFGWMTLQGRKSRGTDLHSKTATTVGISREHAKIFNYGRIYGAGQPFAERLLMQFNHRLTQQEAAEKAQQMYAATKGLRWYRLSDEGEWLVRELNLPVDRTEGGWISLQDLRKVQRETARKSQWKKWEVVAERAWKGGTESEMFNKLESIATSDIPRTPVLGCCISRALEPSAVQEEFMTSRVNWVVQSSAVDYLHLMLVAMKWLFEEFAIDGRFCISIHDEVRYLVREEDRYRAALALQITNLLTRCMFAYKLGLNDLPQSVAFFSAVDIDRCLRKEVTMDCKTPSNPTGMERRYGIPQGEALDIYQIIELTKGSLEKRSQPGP
Briefly: Primer extension assay with human DNA polymerase γ. It counts as biochemical. As to conditions: dNTPs 250 μM, Pol γ 4 U. On the procedure: Two different set‐ups have been used. First, a mixture of dATP, dCTP, dGTP, and γ‐alkyl‐TTP (N*) or ‐d4TTP (T*) was used as a mixture. The results obtained from these experiments were compared to those in which just γ‐alkyl‐TTP (N) or d4TTP (T) was used. In each experiment a primer extension without added polymerase (negative control, ‐ lane) and an experiment in which all four canonical NTPs were added (positive control, +lane) were used as controls.
Anti-HIV activity assay: Inhibition of HIV-1(IIIB)- and HIV-2(ROD)-induced cytopathicity in wild-type CEM/0 and thymidine kinase-deficient CEM/TK- cell cultures was measured in microtiter 96-well plates containing ~3·105 CEM cells/mL infected with 100 CCID50 of HIV per milliliter and containing appropriate dilutions of the test compounds. After 4−5 days of incubation at 37 °C in a CO2-controlled humidified atmosphere, CEM giant (syncytium) cell formation was examined microscopically. The EC50 (50% effective concentration) was defined as the compound concentration required to inhibit HIV-induced giant cell formation by 50%. […]
2) For HIV- RT assay: The final assay solution (10 µL) consists of 50 mM Tris-HCl (pH 8.6 at 22 °C), 10 mM MgCl2, 40mM KCl, dNTPs 66 µM, HIV RT 6 U, Hybrid 0.32 µM in a reaction volume of 10 µL, incubated 37 °C for 15 min, 80 °C for 3 min; 50 mA, 45w for 4 h. […] The result was visualized by fluorescence imaging. […]

As for `Cc1cn(C2C=CC(COP(=O)(O)OP(=O)(O)OP(=O)(O)O)O2)c(=O)[nH]c1=O` (stereo not shown) [2 t, d4TTP, reference compound], the “primer extension by DNA polymerase γ (substrate properties)” value was “not substrates”.
